# Earlier results as cited in patent publication US8449914B2, “Controlled release carvedilol compositions” (Egalet Ltd., priority 2002, dated 2013).
# Like-named read-outs stand apart in the source and are kept apart here.
# What was measured:
# beta-adrenoreceptor [1] = settings: humans
# [2] = not given; remark: listed apart in the source
# alpha1-adrenoreceptor = settings: IR formulation
# beta-adrenoreceptor [3] = settings: preclinical studies
smiles,measurement,setting,value
COc1ccccc1OCCNCC(O)COc1cccc2[nH]c3ccccc3c12 (racemic) [Carvedilol],time after administration at which beta-blocking actions are evident,beta-adrenoreceptor [1],one
same,solubility,95% ethanol,sparingly soluble
same,solubility,dimethylsulfoxide,freely soluble
same,solubility,ethyl ether,slightly soluble
same,solubility,"gastric fluid (simulated, TS, pH1.1)",practically insoluble
same,solubility,"intestinal fluid (simulated, TS without pancreatin, pH 7.5)",practically insoluble
same,solubility,isopropanol,sparingly soluble
same,solubility,methanol,soluble
same,solubility,methylene chloride,soluble
same,solubility,water,practically insoluble
same,steady-state volume of distribution,[2]; in vivo,approximately 115 L
same,"absorption in the large intestine, share of the total absorption","[2]; timed-release capsules, study by Nolte et al",approximately 10%
same,time after administration at which alpha-mediated vasodilatory effects are evident,alpha1-adrenoreceptor,≤ 30 min
"COc1cc(O)ccc1OCCNCC(O)COc1cccc2[nH]c3ccccc3c12 (centres unmarked) [4′-hydroxyphenyl metabolite, 4′-hydroxy carvedilol]",potency for beta-blockade relative to carvedilol,beta-adrenoreceptor [3],approximately 13 times
COc1ccccc1OCCNC[C@@H](O)COc1cccc2[nH]c3ccccc3c12 [R(+)-carvedilol],mean apparent terminal elimination half-lives,[2]; in vivo,5 to 9 h
same,plasma concentrations in poor metabolizers of debrisoquin compared to extensive metabolizers,[2]; in vivo,2-3 fold
COc1ccccc1OCCNC[C@H](O)COc1cccc2[nH]c3ccccc3c12 [S(−)-carvedilol],mean apparent terminal elimination half-lives,[2]; in vivo,7 to 11 h
